Test results as given in publication PMC10552397 (Cell Communication and Signaling : CCS, 2023).

Molecular target: GRASP55 (Homo sapiens, UniProt Q9H8Y8)
Experiment: CETSA (immunoblot quantification of non-denatured GRASP55)
Type: binding
Set-up: endogenous in cells; host or cells: HeLa wt cells
Settings: 100 nM, 6 h, HeLa wt, vs DMSO
Method: Adherent cells were washed in the dish once with DPBS and harvested by Trypsin–EDTA (0.25%, Thermo Fisher Scientific, Waltham, MA, USA, #25,200,056) treatment. After addition of 35 mL DPBS, the cells were pelleted by centrifugation (300 rcf, 5 min, 4 °C), and washed twice by re-suspending and pelleting using 45 mL and 1 mL DPBS, respectively, to remove excess trypsin and for transfer into pre-weighed 2 mL Eppendorf tubes to determine the cell pellet wet weights as quality check after centrifugation (300 rcf, 5 min, 4 °C) and complete removal of the supernatant. […]
After temperature treatment, samples were supplemented with lysis buffer (final concentrations: 0.36 U/µL benzonase, 1.5 mM MgCl2, 1 mM Na3VO4, 10 mM NaF, 2.5 mM Na4P2O7, 0.8% w/v NP-40) for 1 h on ice. […] The total protein concentration of the resulting cell extracts containing the fraction of soluble, non-denatured proteins was determined (Pierce 660 nm Protein Assay, BSA as standard). […] The two (37 °C or 50 °C) x ten (concentrations) x three (replicates) = 60 TPP-CCR samples and two (treatment and control) x ten (temperatures) x three (replicates) = 60 TPP-TR samples were analyzed by LC–MS/MS. GRASP55 was additionally quantified from the TPP-TR samples by immunoblotting as described in the respective section. […]

SMILES: CCCCCC1=C/C(=C/c2[nH]c(-c3ccc[nH]3)cc2OC)N=C1C [Prodigiosin, prodigiosin]
- dif GRASP55 (CETSA), melting point difference: 4.5
